Among the test systems are A549 NSCLC; HCT-15 colon; NCI/ADR-RES ovarian; PC-3 prostate; UACC-62 melanoma; MDA-MB-435; SF-295 CNS; SK-OV-3 ovarian; MDA-MB-231 breast; KM12 colon.
Test in all cases: NCI tumour cell line growth inhibition, 48 h

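Compound exposure: 48 hours, 5 concentrations, 96-well plates. The concentration for full growth arrest is given as TGI.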

Consider `CC12CC(=O)C3C(C(=O)C1)C32C` (stereo not given), for which the TGI with A549 NSCLC, with HCT-15 colon, in the assay with NCI/ADR-RES ovarian, in the assay with PC-3 prostate, in the assay with UACC-62 melanoma and with MDA-MB-435 was over 100 µM throughout. The TGI with SF-295 CNS, in the assay with SK-OV-3 ovarian, in the assay on MDA-MB-231 breast and in the assay with KM12 colon was over 100 µM in each case.
Consider `Cc1csc(-c2cn(C)c3c2C(=O)C(N)=CC3=O)n1`, for which the TGI is 8.76 µM with A549 NSCLC; over 100 µM in the assay on HCT-15 colon; over 100 µM in the assay on NCI/ADR-RES ovarian; over 100 µM in the assay on PC-3 prostate; 26.3 µM in the assay on UACC-62 melanoma; 15.3 µM in the assay on MDA-MB-435. Further, the TGI is 20.8 µM in the assay with SF-295 CNS, over 100 µM with SK-OV-3 ovarian, over 100 µM in the assay on MDA-MB-231 breast and over 100 µM in the assay with KM12 colon.
In the case of `CCCCC1c2c([nH]c3ccccc23)C2C(=O)N(c3ccc(OC)cc3)C(=O)C2C1CCC` (stereo not given), the TGI in the assay with A549 NSCLC was over 10 µM; with HCT-15 colon, over 10 µM; with NCI/ADR-RES ovarian, 5.68 µM; in the assay with PC-3 prostate, 7.46 µM; in the assay with UACC-62 melanoma, 6.77 µM; with MDA-MB-435, 4.29 µM. Moreover, the TGI with SF-295 CNS was over 10 µM; with SK-OV-3 ovarian it was over 10 µM; with MDA-MB-231 breast, over 10 µM; in the assay with KM12 colon, 5.65 µM.
Turning to `N#CC(C#N)=CNC(=S)c1ccncc1`, the TGI with A549 NSCLC, in the assay with HCT-15 colon, with NCI/ADR-RES ovarian, with PC-3 prostate, in the assay on UACC-62 melanoma and in the assay on MDA-MB-435 was over 100 µM each time. Moreover, the TGI in the assay on SF-295 CNS, in the assay on SK-OV-3 ovarian, in the assay on MDA-MB-231 breast and with KM12 colon was over 100 µM in each case.

Values taken from PubChem BioAssay (NCI).
